These results are taken from patent US10155781B2, “Co-crystals, salts and solid forms of tenofovir alafenamide” (Gilead Sciences, Inc., priority 2015, dated 2018).

Structures are written as SMILES. Where a name gives a salt, the structure may show the parent alone.

For the first data set the following is noted: solid material, compared by XRPD.
Text: Two XRPD systems were used for the characterization of the samples.
(1) Bruker AXS C2 GADDS diffractometer uses Cu Kalpha radiation (40 kV, 40 mA), automated XYZ stage, laser video microscope for auto-sample positioning and a HiStar 2-dimensional area detector. X-ray optics consists of a single Göbel multilayer mirror coupled with a pinhole collimator of 0.3 mm. The beam divergence, i.e. the effective size of the X-ray beam on the sample, was approximately 4 mm. A θ-θ continuous scan mode was employed with a sample-detector distance of 20 cm which gives an effective 20 range of 3.2°-29.7°. Typically the sample was exposed to the X-ray beam for 120 seconds. The software used for data collection was GADDS for XP/2000 4.1.36 and the data was analyzed and presented using Diffrac Plus EVA v13.0.0.2 or v15.0.0.0.
Samples run under ambient conditions were prepared as flat plate specimens using powder as received without grinding. Approximately 1-2 mg of the sample was lightly pressed on a glass slide to obtain a flat surface.
(2) Bruker D8 diffractometer uses Cu Ka radiation (40 kV, 40 mA), θ-2θ goniometer, and divergence of V4 and receiving slits, a Ge monochromator and a Lynxeye detector. The software used for data collection was Diffrac Plus XRD Commander v2.6.1 and the data was analyzed and presented using Diffrac Plus EVA v13.0.0.2 or v15.0.0.0.
Samples were run under ambient conditions as flat plate specimens using powder as received. The sample was gently packed into a cavity cut into polished, zero-background (510) silicon wafer. The sample was rotated in its own plane during analysis. The details of the data collection was: Angular range: 2 to 42° 2θ; Step size: 0.05° 2θ; Collection time: 0.5 s/step
(3) PANanalytical XPERT-PRO diffractometer at ambient conditions under the following experimental settings: 45 KV, 40 mA, Kα1=1.5406 Å, scan range 2 to 40°, step size 0.0084 or 0.0167°, measurement time: 5 min.
Consider `CC(C)OC(=O)[C@H](C)N[P@](=O)(CO[C@H](C)Cn1cnc2c(N)ncnc21)Oc1ccccc1` [Tenofovir alafenamide methanesulfonate pattern 1], for which the “XRPD pattern after storage at 40° C. 75% RH for 14 days (solid form stability)” value is on record as “changed to another form”. In the case of `CC(C)OC(=O)[C@H](C)N[P@](=O)(CO[C@H](C)Cn1cnc2c(N)ncnc21)Oc1ccccc1` [tenofovir alafenamide L-malate, Tenofovir Alafenamide L-Malate], the “XRPD pattern after storage at 40° C. 75% RH for 14 days (solid form stability)” value is recorded as “no change”.

As for `CC(C)OC(=O)[C@H](C)N[P@](=O)(CO[C@H](C)Cn1cnc2c(N)ncnc21)Oc1ccccc1` [tenofovir alafenamide benzenesulfonate, Tenofovir Alafenamide Benzenesulfonate], the “XRPD pattern after storage at 40° C. 75% RH for 14 days (solid form stability)” value was “no change”. Consider `CC(C)OC(=O)[C@H](C)N[P@](=O)(CO[C@H](C)Cn1cnc2c(N)ncnc21)Oc1ccccc1` [tenofovir alafenamide ethanesulfonate, Tenofovir Alafenamide Ethanesulfonate], for which the “XRPD pattern after storage at 40° C. 75% RH for 14 days (solid form stability)” value is “no XRPD change”. On to `CC(C)OC(=O)[C@H](C)N[P@](=O)(CO[C@H](C)Cn1cnc2c(N)ncnc21)Oc1ccccc1` [tenofovir alafenamide mucate pattern 1, Tenofovir Alafenamide Mucate], for which the “XRPD pattern after storage at 40° C. 75% RH for 14 days (solid form stability)” value is “no change”. On the same count and under the same terms, then `CC(C)OC(=O)[C@H](C)N[P@](=O)(CO[C@H](C)Cn1cnc2c(N)ncnc21)Oc1ccccc1` [tenofovir alafenamide mucate pattern 2, Tenofovir Alafenamide Mucate], with “no change”; and `CC(C)OC(=O)[C@H](C)N[P@](=O)(CO[C@H](C)Cn1cnc2c(N)ncnc21)Oc1ccccc1` [tenofovir alafenamide oxalate, Tenofovir Alafenamide Oxalate], with “no change in XRPD”. Consider `CC(C)OC(=O)[C@H](C)N[P@](=O)(CO[C@H](C)Cn1cnc2c(N)ncnc21)Oc1ccccc1` [tenofovir alafenamide saccharin, Tenofovir Alafenamide Saccharin], for which the “XRPD pattern after storage at 40° C. 75% RH for 14 days (solid form stability)” value was “same XRPD pattern was obtained”.

Still in this data set, the particulars now being: solid material, compared by XRPD, Hydrochloride.
Take `CC(C)OC(=O)[C@H](C)N[P@](=O)(CO[C@H](C)Cn1cnc2c(N)ncnc21)Oc1ccccc1` [tenofovir alafenamide hydrochloride, Tenofovir Alafenamide Hydrochloride]: the “XRPD pattern after storage at 40° C. 75% RH for 14 days (solid form stability)” value is reported as “remained unchanged”.
